Reference: ChEMBL document CHEMBL1144346, “Synthesis, DNA affinity, and antiprotozoal activity of fused ring dicationic compounds and their prodrugs” (J Med Chem, 2005)

What was measured:
[1] = system: Trypanosoma brucei rhodesiense; test: In vitro antiprotozoal activity against Trypanosoma brucei rhodesiense strain STIB900; format: functional, organism-based
Plasmodium falciparum = test: In vitro antiprotozoal activity for Plasmodium falciparum K1; format: functional, organism-based
L6 = test: In vitro cytotoxicity evaluated using cultured L6 rat myoblast cells; format: functional; settings: read-out: TD50 (the source's name)
Mus musculus [2] = test: In vivo antitrypanosomal activity (100 mg/kg for 4 days, p.o.) measured as cured mice infected with Trypanosoma brucei rhodesiense strain STIB900; 0 cured out of 4
Nucleic Acid = test: poly(d(A-T)2) binding affinity is measured as change in DNA melting temperature; format: nucleic-acid assay
Mus musculus [3] = test: In vivo antitrypanosomal activity (10 mg/kg for 4 days, i.p.) measured as cured mice infected with Trypanosoma brucei rhodesiense strain STIB900; 2 cured out of 4; format: functional
Mus musculus [4] = test: In vivo antitrypanosomal activity (10 mg/kg for 4 days, i.p.) measured as survival days of mice infected with Trypanosoma brucei rhodesiense strain STIB900; format: functional
Mus musculus [5] = test: In vivo antitrypanosomal activity (25 mg/kg for 4 days, p.o.) measured as cured mice infected with Trypanosoma brucei rhodesiense strain STIB900; 2 cured out of 4
Mus musculus [6] = test: In vivo antitrypanosomal activity (100 mg/kg for 4 days, p.o.) measured as cured mice infected with Trypanosoma brucei rhodesiense strain STIB900; 0 cured out of 4; remark: listed apart in the source
Mus musculus [7] = test: In vivo antitrypanosomal activity (100 mg/kg for 4 days, p.o.) measured as survival days of mice infected with Trypanosoma brucei rhodesiense strain STIB900
Mus musculus [8] = test: In vivo antitrypanosomal activity (20 mg/kg for 4 days, i.p.) measured as cured mice infected with Trypanosoma brucei rhodesiense strain STIB900; 3 cured out of 4; format: functional
Mus musculus [9] = test: In vivo antitrypanosomal activity (20 mg/kg for 4 days, i.p.) measured as survival days of mice infected with Trypanosoma brucei rhodesiense strain STIB900; format: functional
Mus musculus [10] = test: In vivo antitrypanosomal activity (20 mg/kg for 4 days, i.p.) measured as cured mice infected with Trypanosoma brucei rhodesiense strain STIB900; 0 cured out of 4; format: functional

SMILES	IC50 [1] [µM]	IC50 (Plasmodium falciparum) [µM]	CC50 (L6) [µM]	delta Tm (Nucleic Acid) [°C]	further results
CCOC(=O)N/C(=N/C(C)C)Nc1ccc2c(c1)Cc1cc(N/C(=N\C(C)C)NC(=O)OCC)ccc1-2	2.5	6.3	94.2	–	Cures (Mus musculus [2]): 0
N=C(N)Nc1ccc2c(c1)C(=O)c1cc(NC(=N)N)ccc1-2	0.0073	0.268	41.5	6.1	Cures (Mus musculus [3]): 2; Survival (Mus musculus [4]): >50.75 days
CC/N=C(/NC(=O)OCC)Nc1ccc2c(c1)Cc1cc(/N=C(/NCC)NC(=O)OCC)ccc1-2	8	4.1	174	–	–
CCOC(=O)N/C(=N/C)Nc1ccc2c(c1)Cc1cc(N/C(=N\C)NC(=O)OCC)ccc1-2	2.9	10.3	95.6	–	Cures (Mus musculus [5]): 2
CCOC(=O)NC(=N)Nc1ccc2c(c1)C(=O)c1cc(NC(=N)NC(=O)OCC)ccc1-2	12.9	3.2	> 200	–	Cures (Mus musculus [6]): 0
CC/N=C(/N)Nc1ccc2c(c1)Cc1cc(N/C(N)=N\CC)ccc1-2	0.0169	0.0133	39.2	10	–
N=C(Nc1ccc2c(c1)Cc1cc(NC(=N)c3ccccn3)ccc1-2)c1ccccn1	0.894	1.2	98.7	15.2	–
CC(C)CONC(=N)Nc1ccc2c(c1)Cc1cc(NC(=N)NOCC(C)C)ccc1-2	21.2	0.351	68.4	–	Survival (Mus musculus [7]): 6.75 days; Cures (Mus musculus [2]): 0
C/N=C(/N)Nc1ccc2c(c1)Cc1cc(N/C(N)=N\C)ccc1-2	0.0126	0.01	65.2	10.1	Cures (Mus musculus [8]): 3; Survival (Mus musculus [9]): >52 days
CONC(=N)Nc1ccc2c(c1)Cc1cc(NC(=N)NOC)ccc1-2	47.5	3	137	–	Survival (Mus musculus [7]): 8 days; Cures (Mus musculus [2]): 0
CCOC(=O)NC(=N)Nc1ccc2c(c1)Cc1cc(NC(=N)NC(=O)OCC)ccc1-2	0.814	3.7	> 201	–	Survival (Mus musculus [7]): 18.75 days; Cures (Mus musculus [2]): 0
N=C(N)Nc1ccc2c(c1)Cc1cc(NC(=N)N)ccc1-2	–	–	4.7	13.6	Cures (Mus musculus [10]): 0; Survival (Mus musculus [9]): 6 days
CC(C)/N=C(/N)Nc1ccc2c(c1)Cc1cc(N/C(N)=N\C(C)C)ccc1-2	0.0404	0.0357	85.2	9.3	–
N=C(N)Nc1ccc2c(c1)C(=O)c1cc(NC(=N)N)ccc1C2=O	0.128	30.2	35.3	7.2	–
N=C(Nc1ccc2c(c1)Cc1cc(NC(=N)c3ccccc3)ccc1-2)c1ccccc1	0.292	0.481	1.9	22	–
N=C(N)c1ccc(-c2ccc(-c3ccc(C(=N)N)cc3)o2)cc1 [FURAMIDINE]	–	–	6.4	25	Cures (Mus musculus [10]): 0; Survival (Mus musculus [9]): 52.5 days
N=C(N)c1ccc(OCCCCCOc2ccc(C(=N)N)cc2)cc1 [PENTAMIDINE]	0.0023	0.0346	1.5	12.6	Cures (Mus musculus [10]): 0; Survival (Mus musculus [9]): 40.8 days
